In patent publication US7662810B2, “2-arylmethylazetidine carbapenem derivatives and preparation thereof” (Korea Research Institute of Chemical Technology, priority 2004, dated 2010):
Converted amounts (≈) assume the structure as drawn.

Columns and labels:
[1] = molecular target: T1, Dihydropeptidase-1 (DHP-1) (Sus scrofa, UniProt P22412)
T1 sequence (P22412 17-384): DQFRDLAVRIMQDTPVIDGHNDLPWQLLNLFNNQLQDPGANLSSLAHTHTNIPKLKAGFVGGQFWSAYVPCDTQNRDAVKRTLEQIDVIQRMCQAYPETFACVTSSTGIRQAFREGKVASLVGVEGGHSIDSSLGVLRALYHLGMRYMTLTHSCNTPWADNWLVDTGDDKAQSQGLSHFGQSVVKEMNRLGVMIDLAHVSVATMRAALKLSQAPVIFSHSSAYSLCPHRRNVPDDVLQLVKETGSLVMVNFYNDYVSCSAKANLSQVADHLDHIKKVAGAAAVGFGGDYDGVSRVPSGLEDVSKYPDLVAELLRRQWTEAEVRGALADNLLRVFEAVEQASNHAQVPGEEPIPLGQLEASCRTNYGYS
Description: The rate of degradation of the inventive compounds by the action of DHP-1 enzyme extracted from hog kidney was determined as follow.
0.2 unit of the enzyme was allowed to react with the above solution at 30° C., and the absorbance at 299 nm of the remaining medicament was measured to determine the degradation rate. The absorbance was measured at 0, 0.5, 1, 2 and 4 hour points, and T1/2, the time when the concentration of the medicament become the half, was obtained by regression analysis.

[2] = system: Staphylococcus aureus 692E; assay: Measurement of Minimum Inhibitory Concentration (MIC), MRSA; type: cell-based
Description: (§1) The antibacterial activities of the compounds of the present invention prepared in the above Examples against Gram-positive and Gram-negative bacteria, MRSA and QRS were tested as follows.
(§2) Respective bacterial strains were inoculated into 3 ml of Fleisch extract broth (beef extract 1%, peptone 1%, NaCl 0.3%, Na2HPO4.12H2O 0.2%, pH 7.4-7.5. 10% horse serum was supplemented for Streptococcus pyogenes and S. facium) and cultured on a shaking incubator at 37° C. for 18 hours. About 10^4 CFU/spot of the cultured bacterial strains were inoculated onto Müller-Hinton agar plates containing serial double dilutions (final concentration of 0.002 to 100 μg/ml) of a test compound employing an automatic inoculator (Dynatech, USA), and incubated at 37° C. for 18 hours. When the incubation was completed, the minimum inhibitory concentration was determined. Meropenem (Yuhan corporation, Korea) and vancomycin (Cj Inco., Korea) were used as standard antibiotics, respectively.

[3] = system: Staphylococcus aureus 88E; assay: as above; type: cell-based
Description: as §1, §2

[4] = system: Staphylococcus aureus 208E; assay: as above; type: cell-based
Description: as §1, §2

[5] = system: Staphylococcus aureus 694E; assay: as above; type: cell-based
Description: as §1, §2

[6] = system: Staphylococcus aureus 690E; assay: as above; type: cell-based
Description: as §1, §2

[7] = system: Staphylococcus aureus 693E; assay: as above; type: cell-based
Description: as §1, §2

[8] = system: Staphylococcus aureus 697E; assay: as above; type: cell-based
Description: as §1, §2

[9] = system: Staphylococcus aureus 121E; assay: as above; type: cell-based
Description: as §1, §2

[10] = system: Staphylococcus aureus 695E; assay: as above; type: cell-based
Description: as §1, §2

[11] = system: Staphylococcus aureus 256E; assay: as above; type: cell-based
Description: as §1, §2

[12] = system: Salmonella typhimurium 179; assay: Measurement of Minimum Inhibitory Concentration (MIC); type: cell-based
Description: as §1, §2

[13] = system: Escherichia coli DC 0; assay: as above; type: cell-based
Description: as §1, §2

[14] = system: Staphylococcus pyogenes 308A; assay: as above; type: cell-based
Description: as §1, §2

[15] = system: Staphylococcus pyogenes 77A; assay: as above; type: cell-based
Description: as §1, §2

[16] = system: Enterobacter cloacae P 99; assay: as above; type: cell-based
Description: as §1, §2

[17] = system: Escherichia coli 078; assay: as above; type: cell-based
Description: as §1, §2

[18] = system: Staphylococcus faecium MD 8b; assay: as above; type: cell-based
Description: as §1, §2

[19] = system: Klebsiella aerogenes 1522 E; assay: as above; type: cell-based
Description: as §1, §2

[20] = system: Escherichia coli TEM; assay: as above; type: cell-based
Description: as §1, §2

[21] = system: Staphylococcus aureus 503; assay: as above; type: cell-based
Description: as §1, §2

[22] = system: Klebsiella oxytoca 1082 E; assay: as above; type: cell-based
Description: as §1, §2

[23] = system: Staphylococcus aureus 285; assay: as above; type: cell-based
Description: as §1, §2

[24] = system: Enterobacter cloacae 1321 E; assay: as above; type: cell-based
Description: as §1, §2

[25] = system: Escherichia coli 1507 E; assay: as above; type: cell-based
Description: as §1, §2

[26] = system: Escherichia coli DC 2; assay: as above; type: cell-based
Description: as §1, §2

[27] = system: Staphylococcus epidermidis 178; assay: Measurement of Minimum Inhibitory Concentration (MIC), QRS; type: cell-based
Description: as §1, §2

[28] = system: Staphylococcus aureus 179; assay: as above; type: cell-based
Description: as §1, §2

[29] = system: Staphylococcus aureus 293; assay: as above; type: cell-based
Description: as §1, §2

[30] = system: Staphylococcus aureus 241; assay: as above; type: cell-based
Description: as §1, §2

[31] = system: Staphylococcus epidermidis 291; assay: as above; type: cell-based
Description: as §1, §2

## C[C@@H](O)[C@H]1C(=O)N2C(C(=O)[O-])=C(SC3CN(Cc4cccc(C(F)(F)F)c4)C3)[C@H](C)[C@H]12.[K+] [Exam. 20, Potassium(1R,5S,6S)-2-[1-(3-trifluoromethylbenzyl)-azetidine-3-yl-thio]-6-[(1R)-1-hydroxylethyl]-1-methylcarbapen-2-em-3-carboxylate]
[1]
  Relative T1/2: 0.88
  T1/2 (time when the concentration of the medicament become the half): 16.03

## COc1ccc(CN2CC(SC3=C(C(=O)[O-])N4C(=O)[C@H]([C@@H](C)O)[C@H]4[C@H]3C)C2)cc1OC.[K+] [Exam. 17, Potassium(1R,5S,6S)-2-[1-(3,4-dimethoxybenzyl)-azetidine-3-yl-thio]-6-[(1R)-1-hydroxylethyl]-1-methylcarbapen-2-em-3-carboxylate]
[2]; Staphylococcus aureus 692E
  MIC: 0.195 µg/mL
[3]; Staphylococcus aureus 88E
  MIC: 0.195 µg/mL
[4]; Staphylococcus aureus 208E
  MIC: 0.049 µg/mL
[5]; Staphylococcus aureus 694E
  MIC: 0.098 µg/mL
[6]; Staphylococcus aureus 690E
  MIC: 0.781 µg/mL
[7]; Staphylococcus aureus 693E
  MIC: 0.391 µg/mL
[8]; Staphylococcus aureus 697E
  MIC: 0.098 µg/mL
[9]; Staphylococcus aureus 121E
  MIC: 0.098 µg/mL
[10]; Staphylococcus aureus 695E
  MIC: 0.098 µg/mL
[11]; Staphylococcus aureus 256E
  MIC: 0.049 µg/mL
[12]; Salmonella typhimurium 179
  MIC: 0.098 µg/mL
[13]
  MIC: 0.781 µg/mL
[14]; Staphylococcus pyogenes 308A
  MIC: 0.002 µg/mL
[15]; Staphylococcus pyogenes 77A
  MIC: 0.002 µg/mL
[16]
  MIC: 0.781 µg/mL
[17]
  MIC: 0.098 µg/mL
[18]; Staphylococcus faecium MD 8b
  MIC: 1.563 µg/mL
[19]
  MIC: 0.391 µg/mL
[20]; Escherichia coli TEM
  MIC: 0.391 µg/mL
[21]
  MIC: 0.013 µg/mL
[22]
  MIC: 0.098 µg/mL
[23]
  MIC: 0.025 µg/mL
[24]
  MIC: 0.391 µg/mL
[25]
  MIC: 0.391 µg/mL
[26]
  MIC: 0.049 µg/mL
[1]
  T1/2 (time when the concentration of the medicament become the half): 27.45
[27]; QRS, Staphylococcus epidermidis 178
  MIC: 0.781 µg/mL
[28]; QRS, Staphylococcus aureus 179
  MIC: 0.098 µg/mL
[29]; QRS, Staphylococcus aureus 293
  MIC: 0.391 µg/mL
[30]; QRS, Staphylococcus aureus 241
  MIC: 0.195 µg/mL
[31]; QRS, Staphylococcus epidermidis 291
  MIC: 1.563 µg/mL

## C[C@H](c1ccccc1)N1CC(SC2=C(C(=O)[O-])N3C(=O)[C@H]([C@@H](C)O)[C@H]3[C@H]2C)C1.[K+] [Exam. 21, Potassium(1R,5S,6S)-2-{1-[(1R)-1-phenylethyl]-azetidine-3-yl-thio}-6-[(1R)-1-hydroxylethyl]-1-methylcarbapen-2-em-3-carboxylate]
[1]
  Relative T1/2: 1.88
  T1/2 (time when the concentration of the medicament become the half): 38.43

## Cc1ccc(CN2CC(SC3=C(C(=O)[O-])N4C(=O)[C@H]([C@@H](C)O)[C@H]4[C@H]3C)C2)cc1.[K+] [Exam. 23, Potassium(1R,5S,6S)-2-[1-(4-methylbenzyl)-azetidine-3-yl-thio]-6-[(1R)-1-hydroxylethyl]-1-methylcarbapen-2-em-3-carboxylate]
[1]
  Relative T1/2: 1.38
  T1/2 (time when the concentration of the medicament become the half): 25.24

## CC(c1ccc(Br)cc1)N1CC(SC2=C(C(=O)[O-])N3C(=O)[C@H]([C@@H](C)O)[C@H]3[C@H]2C)C1.[K+] (stereo partly drawn) [Exam. 24, Potassium(1R,5S,6S)-2-{1-[1-(4-bromophenyl)ethyl]-azetidine-3-yl-thio}-6-[(1R)-1-hydroxylethyl]-1-methylcarbapen-2-em-3-carboxylate]
[1]
  Relative T1/2: 1.08
  T1/2 (time when the concentration of the medicament become the half): 19.71

## COc1cccc(CN2CC(SC3=C(C(=O)[O-])N4C(=O)[C@H]([C@@H](C)O)[C@H]4[C@H]3C)C2)c1.[K+] [Exam. 15, Potassium(1R,5S,6S)-2-[1-(3-methoxybenzyl)-azetidine-3-yl-thio]-6-[(1R)-1-hydroxylethyl]-1-methylcarbapen-2-em-3-carboxylate]
[1]
  Relative T1/2: 1.54
  T1/2 (time when the concentration of the medicament become the half): 28.16

## CN[C@H](CC(C)C)C(=O)N[C@H]1C(=O)N[C@@H](CC(N)=O)C(=O)N[C@H]2C(=O)N[C@H]3C(=O)N[C@H](C(=O)N[C@H](C(=O)O)c4cc(O)cc(O)c4-c4cc3ccc4O)[C@H](O)c3ccc(c(Cl)c3)Oc3cc2cc(c3O[C@@H]2O[C@H](CO)[C@@H](O)[C@H](O)[C@H]2O[C@H]2C[C@](C)(N)[C@H](O)[C@H](C)O2)Oc2ccc(cc2Cl)[C@H]1O [Vancomycin, vancomycin, reference compound]
[2]; Staphylococcus aureus
  MIC: 0.781 µg/mL (≈ 0.539 µM)
[3]; Staphylococcus aureus
  MIC: 0.781 µg/mL (≈ 0.539 µM)
[4]; Staphylococcus aureus
  MIC: 0.781 µg/mL (≈ 0.539 µM)
[5]; Staphylococcus aureus
  MIC: 1.56 µg/mL (≈ 1.08 µM)
[6]; Staphylococcus aureus
  MIC: 0.391 µg/mL (≈ 0.27 µM)
[7]; Staphylococcus aureus
  MIC: 1.56 µg/mL (≈ 1.08 µM)
[8]; Staphylococcus aureus
  MIC: 0.781 µg/mL (≈ 0.539 µM)
[9]; Staphylococcus aureus
  MIC: 0.781 µg/mL (≈ 0.539 µM)
[10]; Staphylococcus aureus
  MIC: 1.56 µg/mL (≈ 1.08 µM)
[11]; Staphylococcus aureus
  MIC: 0.781 µg/mL (≈ 0.539 µM)
[12]; Salmonella enterica, TYPHIMURIUM
  MIC: 100 µg/mL (≈ 69 µM)
[13]
  MIC: 100 µg/mL (≈ 69 µM)
[14]; Staphylococcus aureus, 308A
  MIC: 0.781 µg/mL (≈ 0.539 µM)
[15]; Staphylococcus aureus, 77A
  MIC: 0.391 µg/mL (≈ 0.27 µM)
[16]
  MIC: 100 µg/mL (≈ 69 µM)
[17]
  MIC: 100 µg/mL (≈ 69 µM)
[18]; Staphylococcus, MD8B
  MIC: 0.391 µg/mL (≈ 0.27 µM)
[19]
  MIC: 100 µg/mL (≈ 69 µM)
[20]; Escherichia coli
  MIC: 100 µg/mL (≈ 69 µM)
[21]
  MIC: 0.391 µg/mL (≈ 0.27 µM)
[22]
  MIC: 100 µg/mL (≈ 69 µM)
[23]
  MIC: 0.391 µg/mL (≈ 0.27 µM)
[24]
  MIC: 100 µg/mL (≈ 69 µM)
[25]
  MIC: 100 µg/mL (≈ 69 µM)
[26]
  MIC: 50 µg/mL (≈ 34.5 µM)
[27]; Staphylococcus epidermidis, 178
  MIC: 1.56 µg/mL (≈ 1.08 µM)
[28]; Staphylococcus aureus, 179
  MIC: 0.781 µg/mL (≈ 0.539 µM)
[29]; Staphylococcus aureus, 293
  MIC: 0.781 µg/mL (≈ 0.539 µM)
[30]; Staphylococcus aureus, 241
  MIC: 0.781 µg/mL (≈ 0.539 µM)
[31]; Staphylococcus epidermidis, 291
  MIC: 1.56 µg/mL (≈ 1.08 µM)

## C[C@@H](O)[C@H]1C(=O)N2C(C(=O)[O-])=C(SC3CN(Cc4ccc(Cl)cc4)C3)[C@H](C)[C@H]12.[K+] [Exam. 18, Potassium(1R,5S,6S)-2-[1-(4-chlorobenzyl)-azetidine-3-yl-thio]-6-[(1R)-1-hydroxylethyl]-1-methylcarbapen-2-em-3-carboxylate]
[1]
  Relative T1/2: 0.84
  T1/2 (time when the concentration of the medicament become the half): 15.36
